{
  "source": "patent US10934346B2",
  "about": "“Modified T cell comprising a polynucleotide encoding an inducible stimulating molecule comprising MyD88, CD40 and FKBP12” (priority 2014, dated 2021)",
  "key": {"[1]": {"system": "BLK CL4 fibroblasts", "test": "IL-6 ELISA of adenovirus-transduced BLK CL4 fibroblasts with AP1903", "format": "cell-based", "details": "100 nM AP1903", "method": "BLK.CL4 fibroblasts were cultured at 175,000 cells/ml/well in 24-well plates. Adenoviruses were added at 6000, 12000, 18000, 24000 and 30000 virus/cell ratio and cells were incubated for 24 hours. Then, 100 nM of AP1903 was added to all the wells, and the following day cells and culture supernatants were harvested. A. Cells were labeled with anti-human PSMA antibody, LNI-17, (Biolegend, San Diego, Calif.) and PSMA expression was analyzed by flow cytometry. Represented is the percentage of PSMA^+ cells when compared to non-transduced cells. B. IL-6 was evaluated from the culture supernatants by ELISA (e-Bioscience, San Diego, Calif.). For FIG. 31, BLK.CL4 fibroblasts were cultured at 350,000 cells/well in 6-well plates. Adenoviruses were added at 20,000 v.p./cell ratio and cells were incubated for 24 hours. Then, 100 nM of AP1903 was added, and the following day culture supernatants were harvested. IL-6 was evaluated from the culture supernatants by ELISA (e-Bioscience, San Diego, Calif.)."}, "[2]": {"system": "iMC-modified T cells", "test": "Titration of rimiducid on iMC-transduced T cells (T cell activation)", "format": "cell-based, human", "excerpt": "Cytokine and chemokine production. […] CAR and iMC signaling."}, "[3]": {"system": "cells", "test": "Amount of AP1903 needed in vitro for effective signaling of cells", "format": "cell-based", "method": "The fixed dose of AP1903 for injection used, for example, may be 0.4 mg/kg intravenously infused over 2 hours. The amount of AP1903 needed in vitro for effective signaling of cells is about 10-100 nM (MW: 1412 Da). This equates to 14-140 μg/L or ˜0.014-0.14 mg/kg ([…]). The dosage may vary according to the application, and may, in certain examples, be more in the range of 0.1-10 nM, or in the range of 50-150 nM, 10-200 nM, 75-125 nM, 100-500 nM, 100-600 nM, 100-700 nM, 100-800 nM, or 100-900 nM. Doses up to 1 mg/kg were well-tolerated in the Phase I study of AP1903 described above."}, "[4]": {"system": "CAPAN-1 GFP+ tumor cells", "test": "Co-culture of iMC-enabled T cells with CAPAN-1-GFP tumor cells", "format": "cell-based, human", "details": "10 nM AP1903, 5:1 T cells to tumor cells, 72 hours, RV-172 T cells", "method": "FIG. 53 Activation of iMC-transduced T cells with AP1903 induces T cell killing of tumor cells. […] Co-cultures were cultured with or without 10 nM AP1903. After 72 hours, co-cultures were analyzed for GFP^+ tumor cells (X-axis) by flow cytometry.\nFIG. 55: Activation of iMC-transduced T cells with AP1903 induces T cell killing of tumor cells. […] Co-cultures were cultured with or without 10 nM AP1903. After 72 hours, co-cultures were analyzed for GFP^+ tumor cells by flow cytometry (n=2).\nFIG. 56: Activation of iMC-transduced T cells with AP1903 induces T cell killing of tumor cells. […] Co-cultures were cultured with or without 10 nM AP1903.\n3. Non-transduced T cells or cells transduced with RV-171 (control vector) or RV-172 (iMC vector) were cultured at a 5:1 ratio of T cells to tumor cells in media supplemented with 50 U/ml IL-2, and either with or without 10 nM AP1903. Co-cultures were then incubated at 37° C. and 5% CO2 for 72 hours. Cultures were subsequently analyzed for the presence of GFP^+ tumor cells by fluorescent microscopy and by harvesting the cultures with 0.25% trypsin/EDTA and measuring the frequency of GFP^+CD3^− tumor cells in the culture by flow cytometry."}, "[5]": {"system": "Capan-1-GFP tumor cells", "test": "Coculture of CAR/iMC T cells with Capan-1-GFP tumor cells", "details": "10 nM rimiducid, PSCA.ζ CAR and iMC T cells, 7 days", "quoted_text": "FIG. 2C) Non-transduced and PSCA.ζ CAR T cells modified with either FKBP or iMC were cocultured with Capan-1-GFP tumor cells at a 1:1 T cell to tumor cell ratio with and without 10 nM rimiducid. Tumor cell and T cell frequency were assessed after 7 days by flow cytometry. Tumor cell frequency was assessed by flow cytometry by measuring CD3^−GFP^+ tumor cells by SSC/GFP gating. Enrichment of T cells coexpressing iMC and CAR were assessed in coculture assays by flow cytometry by measuring CD19-PE and anti-CAR-APC frequency, respectively. FIG. 2D) T cells were subsequently assessed for CD25 expression and measured for T cell proliferation (FIG. 2E) using flow cytometry and cell enumeration.\nFIG. 12B) Non-transduced T cells and T cells transduced with FKBP^+PSCA.ζ, FKBP^+PSCA.28.ζ) or iMC^+PSCA.ζ were cocultured with Capan-1-GFP tumor cells at a 1:1 effector:target ratio for 7 days and analyzed for residual tumor cells (CD3^−GFP^+) by flow cytometry.\nCoculture experiment. […] After 7 days, all residual cells were collected by trypsinization, counted and stained with CD3, CD19 and Fc-specific antibodies and analyzed by flow cytometry. […]"}},
  "note": "Entries after “also recorded” stand apart in the source; their conditions may differ.",
  "data": [
    {"smiles": "CC[C@H](C(=O)N1CCCC[C@H]1C(=O)O[C@H](CCc1ccc(OC)c(OC)c1)c1cccc(OCC(=O)NCCNC(=O)COc2cccc([C@@H](CCc3ccc(OC)c(OC)c3)OC(=O)[C@@H]3CCCCN3C(=O)[C@@H](CC)c3cc(OC)c(OC)c(OC)c3)c2)c1)c1cc(OC)c(OC)c(OC)c1", "note": "(relative stereo) [rimiducid, 2-Piperidinecarboxylic acid, 1-[(2S)-1-oxo-2-(3,4,5-trimethoxyphenyl)butyl]-, 1,2-ethanediylbis [imino(2-oxo-2,1-ethanediyl)oxy-3,1-phenylene[(1R)-3-(3,4-Dimethoxyphenyl)propylidene]] ester, [2S-[1(R*),2R*[S*[S*[1(R*),2R*]]]]]-(9Cl)]", "values": [
      {"measurement": "IL-6 production", "setting": "[1]", "value": "response to AP1903 by producing IL-6"},
      {"measurement": "EC50", "setting": "[2]; Homo sapiens, T-cell, FIG. 1b, read-out: EC50, activation of T cells through the iMC switch", "value": "~0.12", "unit": "nM"},
      {"measurement": "activation of iMC-transduced T cells", "setting": "[2]; […]", "value": "dose-dependent activation"},
      {"measurement": "amount needed in vitro for effective signaling of cells", "setting": "[3]", "value": "10 to 100", "unit": "nM"},
      {"measurement": "amount needed for effective signaling, converted", "setting": "[3]; MW: 1412 Da", "value": "14 to 140", "unit": "µg/L"},
      {"measurement": "GFP+ tumor cells remaining", "setting": "[4]", "value": "elimination of GFP^+ tumor cells; also recorded: showed very few viable GFP^+ tumor cells"},
      {"measurement": "Capan-1-GFP tumor cell elimination", "setting": "[5]", "value": "further enhanced Capan-1-GFP elimination"}
    ]}
  ]
}
